# In US10017506B2, “ATX modulating agents” (BIOGEN MA INC., priority 2012, dated 2018):
# pIC50: −log10 of the molar value.
# Biological target: T1, Human ATX protein (Homo sapiens, UniProt Q13822)
# T1 construct: made in house
# Experiment: ATX biochemical FRET assay with FS-3 substrate
# Conditions: FRET substrate FS-3 2 μM, ATX 1.0 μg/mL, 30 minutes pre-incubation, 2 hours at room temperature; read-out: IC50
# In short: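 Enzyme at 1.0 μg/mL final, pre-incubated with compound (10-point, 3-fold series) for 30 min at RT in Tris pH 7.4 buffer with NaCl, KCl, CaCl2, MgCl2 and 1 mg/mL fatty-acid-free BSA. After FS-3 addition, 2 h at RT protected from light; fluorescence at 485/538 nm.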
row,pIC50,SMILES
1,≥ 6.60,"O=C(O)[C@H]1CC[C@@H](NCc2ccc3ccc(O[C@H]4CC[C@@H](C(F)(F)F)CC4)c(C(F)(F)F)c3c2)CC1 [Example 124, cis-4-(((8-(trifluoromethyl)-7-((cis-4-(trifluoromethyl)cyclohexyl)oxy)naphthalen-2-yl)methyl)amino)cyclohexanecarboxylic acid]"
2,≥ 6.60,"CC(C)(C)[C@H]1CC[C@H](Nc2cc3cc(C(=O)NC4CCCC(C(=O)O)C4)ccc3cn2)CC1 (stereo partly drawn) [Example 150, 3-(3-((trans-4-(tert-butyl)cyclohexyl)amino)isoquinoline-6-carboxamido)cyclohexanecarboxylic acid]"
3,≥ 6.30,"CC[C@H]1CC[C@@H](Oc2ccc3ccc(C(C)N4CCC(C(=O)O)CC4)cc3c2C#N)CC1 (stereo partly drawn) [Example 72, 1-(1-(8-cyano-7-((cis-4-ethylcyclohexyl)oxy)naphthalen-2-yl)ethyl)piperidine-4-carboxylic acid]"
4,≥ 7.00,"CC(N[C@@H]1C[C@H](C(=O)O)C1(C)C)c1ccc2ccc(O[C@H]3CC[C@@H](C(F)(F)F)CC3)c(C(F)(F)F)c2c1 (stereo partly drawn) [Example 119, (1S,3R)-2,2-dimethyl-3-((1-(8-(trifluoromethyl)-7-((cis-4-(trifluoromethyl)cyclohexyl)oxy)naphthalen-2-yl)ethyl)amino)cyclobutanecarboxylic acid]"
5,≥ 7.00,"CC(C)(C)[C@H]1CC[C@H](Nc2cc3cc(C(=O)N[C@H]4CC[C@@H](C(=O)O)CC4)ccc3cn2)CC1 [Example 154, cis-4-(3-((trans-4-(tert-butyl)cyclohexyl)amino)isoquinoline-6-carboxamido)cyclohexane carboxylic acid]"
6,≥ 6.30,"O=C(O)CC1CCC(NCc2ccc3ccc(O[C@H]4CC[C@@H](C(F)(F)F)CC4)c(C(F)(F)F)c3c2)CC1 (stereo partly drawn) [Example 126, 2-(4-(((8-(trifluoromethyl)-7-((cis-4-(trifluoromethyl)cyclohexyl)oxy)naphthalen-2-yl)methyl)amino)cyclohexyl)acetic acid]"
7,≥ 7.00,"CCC(N[C@H]1CC[C@@H](C(=O)O)CC1)c1ccc2ccc(O[C@H]3CC[C@@H](CC)CC3)c(C(F)(F)F)c2c1 (stereo partly drawn) [Example 145, cis-4-((1-(7-((cis-4-ethylcyclohexyl)oxy)-8-(trifluoromethyl)naphthalen-2-yl)propyl)amino)cyclohexanecarboxylic acid]"
8,≥ 7.00,"CC(N[C@H]1C[C@@H](C(=O)O)C1(C)C)c1ccc2ccc(O[C@H]3CC[C@@H](C(F)(F)F)CC3)c(C(F)(F)F)c2c1 (stereo partly drawn) [Example 120, (1R,3S)-2,2-dimethyl-3-((1-(8-(trifluoromethyl)-7-((cis-4-(trifluoromethyl)cyclohexyl)oxy)naphthalen-2-yl)ethyl)amino)cyclobutanecarboxylic acid]"

# Same assay, conditions: IC50, FRET substrate FS-3 2 μM, ATX 1.0 μg/mL, 30 minutes pre-incubation, 2 hours at room temperature
row,SMILES,pIC50
1,"C[C@H]1CC[C@@H](Oc2ccc3ccc(CN4C5CCCC4CC(C(=O)O)C5)cc3c2C(F)(F)F)CC1 (stereo partly drawn) [Example 2, 9-[7-(cis-4-methyl-cyclohexyloxy)-8-trifluoromethyl-naphthalen-2-ylmethyl]-9-aza-bicyclo[3.3.1]nonane-3-carboxylic acid]",≥ 7.00
2,"CC(c1ccc2ccc(O[C@H]3CC[C@@H](C)CC3)c(Cl)c2c1)N1C2CCCC1CC(C(=O)O)C2 (stereo partly drawn) [Example 91, 9-(1-(8-chloro-7-((cis-4-methylcyclohexyl)oxy)naphthalen-2-yl)ethyl)-9-azabicyclo[3.3.1]nonane-3-carboxylic acid]",≥ 6.60
3,"O=C(O)C1CC2CCCC(C1)N2C(=O)c1ccc2ccc(O[C@H]3CC[C@@H](C(F)(F)F)CC3)c(C(F)(F)F)c2c1 (stereo partly drawn) [Example 14, 9-[8-trifluoromethyl-7-(4-trifluoromethyl-cyclohexyloxy)-naphthalene-2-carbonyl]-9-aza-bicyclo[3.3.1]nonane-3-carboxylic acid]",≥ 7.00
4,"CCC(c1ccc2ccc(O[C@H]3CC[C@@H](C(F)(F)F)CC3)c(C#N)c2c1)N1C2CCCC1CC(C(=O)O)C2 (stereo partly drawn) [Example 41, 9-(1-(8-cyano-7-((cis-4-(trifluoromethyl)cyclohexyl)oxy)naphthalen-2-yl)propyl)-9-azabicyclo[3.3.1]nonane-3-carboxylic acid]",≥ 6.60
5,"CC[C@H]1CC[C@@H](Oc2ccc3ccc([C@H](C)N4C5CCCC4CC(C(=O)O)C5)cc3c2C(F)(F)F)CC1 (stereo partly drawn) [Example 133a, 9-((S)-1-(7-((cis-4-ethylcyclohexyl)oxy)-8-(trifluoromethyl)naphthalen-2-yl)ethyl)-9-azabicyclo[3.3.1]nonane-3-carboxylic acid]",≥ 7.00
6,"C[C@H](c1ccc2ccc(O[C@H]3CC[C@@H](C(F)(F)F)CC3)c(C(F)(F)F)c2c1)N1C2CCCC1CC(C(=O)O)C2 (stereo partly drawn) [Example 137b, 9-((R)-1-(8-(trifluoromethyl)-7-((cis-4-(trifluoromethyl)cyclohexyl)oxy)naphthalen-2-yl)ethyl)-9-azabicyclo[3.3.1]nonane-3-carboxylic acid]",≥ 7.00
7,"CC(C)[C@H]1CC[C@@H](Oc2ccc3ccc(CN4C5CCC4CC(C(=O)O)C5)cc3c2C(F)(F)F)CC1 (stereo partly drawn) [Example 107, 8-((7-((cis-4-isopropylcyclohexyl)oxy)-8-(trifluoromethyl)naphthalen-2-yl)methyl)-8-azabicyclo[3.2.1]octane-3-carboxylic acid]",≥ 7.00
